Assay results from patent US8795742B2 (priority 2006, dated 2014).

System: H5 serum type avian influenza virus
Set-up: species or system yellow chicken
Conditions: in vivo

CC(N)C12CC3CC(CC(C3)C1)C2 (stereo not drawn) [Group C, Rimantadine]
Effective rate: 42.5%
Number of death: 23
Rate of death: 57.5%
